Source: US20140228248A1, “METHODS AND COMPOSITIONS FOR DETECTING INFECTIONS” (BIOMED VALLEY DISCOVERIES, INC., priority 2011, published 2014)

Experiments:
DH5α E. coli = experiment: Live cell filter assay in culture media (Millipore NCM filter, scintillation counter); type: cell-based; conditions: for cell based signal over background signal: 10,000 cells incubated for 8 hours, Millipore NCM filter
Protocol: 10,000 cells were put into 2 ml of media (LB, SOB, SOC, DeTox™, or TB), and incubated for 8 hours at 37° C. and shaken at 250 rpm. The samples were then passed through the respective filters (Millipore and others) via a syringe, then the samples were washed with 40 ml of PBS via a syringe. The filter samples were counted using a scintillation counter.
Millipore NCM filters were also used in the live cell experiments. […] Moreover, LB and SOB media strongly potentiated the growth of the DH5α E. coli. The cell based signals are 42.78-fold and 82.63-fold, respectively, over background signal for these two media.
10,000, 50,000 or 100,000 DH5α cells were added into 1 ml SOB media, and 1 μl of 1.76 mM ^14C FIAU was added to the mixture to constitute a 1.76 μM solution. The mixture was incubated for 4 to 6 hours at 37° C. in an agitation incubator. After the incubation period, the mixture was passed through a 0.22 μm Millipore nitrocellulose filter. The filter was then washed with 40 ml of 1×PBS using a syringe. The CPM was determined using a scintillation counter.

DH5α (E. coli) cells = experiment: Detection of cells spiked into human urine / SOB mix (filter assay); type: cell-based; conditions: 10,000 DH5α cells, 50% urine and 50% SOB mix, 1.76 μM, 5 hours
Protocol: In another set of experiments, 10,000 DH5α cells were added into 1 ml human urine. 1 ml of SOB media and 2 μl of 1.76 mM ^14C FIAU was added to the mixture to constitute a 1.76 μM solution. The mixture was incubated for 5 hours at 37° C. in an agitation incubator. After the incubation period, the mixture was passed through a 0.22 μm Millipore nitrocellulose filter. The filter was then washed with 40 ml of 1×PBS using a syringe. The CPM was determined using a scintillation counter. Thus, 10,000 DH5α (E. coli) cells were detectable in a 50% urine and 50% SOB mix in 5 hours.

DH5α cells = experiment: Detection of cells spiked into rat CSF / SOB mix (filter assay); type: cell-based, E. coli; conditions: 10,000 cells, 50% CSF (rat) and 50% SOB, 1.76 μM, 5 hours or less
Protocol: An experiment was also performed to determine whether a shorter incubation period is possible. 10,000 DH5α cells were added into 1 ml rat CSF. 1 ml of SOB media and 2 μl of 1.76 mM ^14C FIAU was added to the mixture to constitute a 1.76 μM solution. The mixture was incubated for 5 hours at 37° C. in an agitation incubator. After the incubation period, the mixture was passed through a 0.22 μm Millipore nitrocellulose filter. The filter was then washed with 40 ml of 1×PBS using a syringe. The CPM was determined using a scintillation counter. Thus, 10,000 cells after 5 hours or less of incubation in a mixture containing 50% CSF and 50% SOB were detectable.

O=c1[nH]c(=O)n([C@@H]2O[C@H](CO)[C@@H](O)[C@@H]2F)cc1I [FIAU, 2′-fluoro-5-iodo-1-β-D-arabinofuranosyluracil]
cell based signal over background signal (DH5α E. coli; LB media): 42.78 fold | cell based signal over background signal (DH5α E. coli; SOB media): 82.63 fold

O=c1[nH][14c](=O)n([C@@H]2O[C@H](CO)[C@@H](O)[C@@H]2F)cc1I [^14C-FIAU, ^14C-labeled 2′-fluoro-5-iodo-1-β-D-arabinofuranosyluracil]
signal versus background (DH5α E. coli; 10,000 DH5α cells, 1 ml SOB, 1.76 μM (200 mCi/mmol), about 4 hours): signal above the background | detectability of cells (DH5α (E. coli) cells): detectable | detectability of cells (DH5α cells): detectable
